Our source for the Ki and ED25 values is ChEMBL document CHEMBL1129160, “Non thiazolidinedione antihyperglycaemic agents. 2: -Carbon substituted -phenylpropanoic acids1” (Bioorg Med Chem Lett, 1996).

Broadly, the Ki is the equilibrium dissociation constant of an inhibitor or competing ligand from its target. Read a high Ki as a looser hold on the target.

The first assay addresses T1, Peroxisome proliferator-activated receptor gamma (Homo sapiens, UniProt P37231).
T1 sequence (P37231 whole entry): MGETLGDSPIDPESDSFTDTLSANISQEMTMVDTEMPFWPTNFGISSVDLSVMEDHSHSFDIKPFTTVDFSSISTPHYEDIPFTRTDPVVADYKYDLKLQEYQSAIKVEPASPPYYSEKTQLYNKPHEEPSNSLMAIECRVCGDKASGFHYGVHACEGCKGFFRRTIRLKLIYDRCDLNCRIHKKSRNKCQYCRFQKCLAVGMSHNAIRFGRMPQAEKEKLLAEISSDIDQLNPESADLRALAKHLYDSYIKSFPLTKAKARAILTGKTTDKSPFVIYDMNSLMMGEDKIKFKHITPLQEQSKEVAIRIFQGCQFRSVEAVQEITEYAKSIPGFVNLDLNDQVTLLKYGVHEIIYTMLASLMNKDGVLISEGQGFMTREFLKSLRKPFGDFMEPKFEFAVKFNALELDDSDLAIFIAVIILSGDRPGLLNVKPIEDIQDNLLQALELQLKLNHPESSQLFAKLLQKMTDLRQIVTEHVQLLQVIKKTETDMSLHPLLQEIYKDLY
Briefly: Inhibition of [125I]SB 236636 binding to human PPAR gamma receptor.
`CC(Cc1ccc(OCCN(C)c2nc3ccccc3o2)cc1)C(=O)O` (centres undefined) gave a Ki of 1500 nM.

The next assay relates to Mus musculus. The experiment in a line: In vivo anti-hyperglycaemic activity in mice. Format: functional.
As to `C=CCC(Cc1ccc(OCCN(C)c2nc3ccccc3o2)cc1)C(=O)O` (centres undefined), the ED25 was found to be 30 µM/kg.
`CN(CCOc1ccc(CC(CCCc2ccccc2)C(=O)O)cc1)c1nc2ccccc2o1` (centres undefined): the ED25 was 3 µM/kg.
For `CN(CCOc1ccc(CC(CCCCc2ccccc2)C(=O)O)cc1)c1nc2ccccc2o1` (centres undefined), the ED25 is 100 µM/kg.
Regarding `CN(CCOc1ccc(CC(CCCCCc2ccccc2)C(=O)O)cc1)c1nc2ccccc2o1` (centres undefined), the ED25 was 3 µM/kg.
Compound `COCC(Cc1ccc(OCCN(C)c2nc3ccccc3o2)cc1)C(=O)O` (centres undefined) returned an ED25 of 30 µM/kg.
For `COC(=O)C(CCc1ccccc1)Cc1ccc(OCCN(C)c2nc3ccccc3o2)cc1` (centres undefined), the ED25 was determined as 100 µM/kg.
In the case of `CCC(Cc1ccc(OCCN(C)c2nc3ccccc3o2)cc1)C(=O)O` (centres undefined), the ED25 amounted to 30 µM/kg.
`COC(=O)C(Cc1ccccc1)Cc1ccc(OCCN(C)c2nc3ccccc3o2)cc1` (centres undefined) came in with an ED25 of 300 µM/kg.
Same read-out and setting: to `COC(=O)C(Cc1ccc(OCCN(C)c2nc3ccccc3o2)cc1)C(C)=O` (centres undefined) belongs 300 µM/kg; to `CC(C)CCC(Cc1ccc(OCCN(C)c2nc3ccccc3o2)cc1)C(=O)O` (centres undefined), 100 µM/kg; to `CN(CCOc1ccc(CC2SC(=O)NC2=O)cc1)c1nc2ccccc2o1` (centres undefined) [BRL-48482], 3 µM/kg.
As for `Cc1c(C)c2c(c(C)c1O)CCC(C)(COc1ccc(CC3SC(=O)NC3=O)cc1)O2` (centres undefined) [TROGLITAZONE], the ED25 amounted to 400 µM/kg.
Compound `CN(CCOc1ccc(CC(C#N)C(=O)O)cc1)c1nc2ccccc2o1` (centres undefined) gave an ED25 of 10 µM/kg.
As for `CC(Cc1ccc(OCCN(C)c2nc3ccccc3o2)cc1)C(=O)O` (centres undefined), the ED25 is 1000 µM/kg.
In the case of `CCOC(Cc1ccc(OCCN(C)c2nc3ccccc3o2)cc1)C(=O)O` (centres undefined), the ED25 was determined as 0.1 µM/kg.
Still for that read-out and setting: to `CCCCCCC(Cc1ccc(OCCN(C)c2nc3ccccc3o2)cc1)C(=O)O` (centres undefined) belongs 10 µM/kg; to `COC(=O)C(Cc1ccc(OCCN(C)c2nc3ccccc3o2)cc1)C(=O)OC`, 10 µM/kg.
Consider `CCCC(Cc1ccc(OCCN(C)c2nc3ccccc3o2)cc1)C(=O)O` (centres undefined), for which the ED25 was 10 µM/kg.
The compound `CN(CCOc1ccc(CC(CCOc2ccccc2)C(=O)O)cc1)c1nc2ccccc2o1` (centres undefined) had an ED25 of 30 µM/kg.
On the same count and under the same terms, the value for `CN(CCOc1ccc(CC(C/C=C/c2ccccc2)C(=O)O)cc1)c1nc2ccccc2o1` (centres undefined) was 30 µM/kg; that for `CCOC(=O)C(Cc1ccc(OCCN(C)c2nc3ccccc3o2)cc1)C(=O)c1ccccc1` (centres undefined) was over 1000 µM/kg.
Regarding `CN(CCOc1ccc(CC(C(=O)O)c2ccccc2)cc1)c1nc2ccccc2o1` (centres undefined), the ED25 worked out at 30 µM/kg.

A further assay addresses T1, Peroxisome proliferator-activated receptor gamma.
With `CN(CCOc1ccc(CC(CCCc2ccccc2)C(=O)O)cc1)c1nc2ccccc2o1` (centres undefined), the Ki worked out at 30 nM.
